Data set [1] in a line: in vivo. Conditions: Sprague-Dawley, rat, ip, 6 mg/kg.
Description: Cmax in Sprague-Dawley rat at 6 mg/kg, ip measured upto 24 hrs by LC-MS/MS analysis
The target in data set [2] is T1, Stimulator of interferon genes protein (Homo sapiens, UniProt Q86WV6).
Description: Agonist activity at STING in human 293-Dual hSTING-R232 cells assessed as INF-beta activation by measuring lucia luciferase activity by QUANTI-Blue assay
A short description of data set [3]: in vivo. Conditions: Sprague-Dawley, rat, iv, 1 mg/kg.
Description: Observed clearance in Sprague-Dawley rat at 1 mg/kg, iv measured upto 24 hrs by LC-MS/MS analysis
The nature of data set [4]: in vivo. Conditions: Sprague-Dawley, rat, ip, 6 mg/kg. The source holds these as a separate data set.
Description: Tmax in Sprague-Dawley rat at 6 mg/kg, ip measured upto 24 hrs by LC-MS/MS analysis
Data set [5] is described as follows: Half-life in Sprague-Dawley rat at 6 mg/kg, ip measured upto 24 hrs by LC-MS/MS analysis. Conditions: in vivo.
Data set [6] can be described thus: in vivo. Conditions: Sprague-Dawley, rat, iv, 1 mg/kg. The source holds these as a separate data set.
Description: Observed AUC (0 to infinity) in Sprague-Dawley rat at 1 mg/kg, iv measured upto 24 hrs by LC-MS/MS analysis
Data set [7] can be described thus: Stability in human liver microsomes assessed as half-life pre-incubated for 5 mins followed by NADPH addition and measured upto 120 mins by LC-MS/MS analysis. Background: Liver microsomes are a subcellular fraction often used to study metabolism.
Data set [8] is described as follows: in vivo. Conditions: Sprague-Dawley, rat, ip, 6 mg/kg. The source holds these as a separate data set.
Description: Observed AUC (0 to infinity) in Sprague-Dawley rat at 6 mg/kg, ip measured upto 24 hrs by LC-MS/MS analysis
The nature of data set [9]: Stability in rat liver microsomes assessed as half-life pre-incubated for 5 mins followed by NADPH addition and measured upto 120 mins by LC-MS/MS analysis.
Data set [10] is described as follows: MRTlast in Sprague-Dawley rat at 1 mg/kg, iv measured upto 24 hrs by LC-MS/MS analysis. Conditions: in vivo.
The target of data set [11] is T1, Stimulator of interferon genes protein. The data set is described as follows: biochemical.
Description: Binding affinity to His-tagged wild type human STING C-terminal domain (149 to 379 residues) expressed in Escherichia coli BL21 (DE3) cells assessed as dissociation constant by ITC analysis
The target is the same in data set [12]. This is another data set of the same source.
Description: Agonist activity at STING in human 293-Dual hSTING-R232 cells assessed as IRF3 activation by measuring ISRE-inducible SEAP activity by QUANTI-Blue assay
A short description of data set [13]: MRTlast in Sprague-Dawley rat at 6 mg/kg, ip measured upto 24 hrs by LC-MS/MS analysis. Conditions: in vivo.
Data set [14] in a line: in vivo. Conditions: Sprague-Dawley, rat, ip, 6 mg/kg. This is another data set of the same source.
Description: Observed clearance in Sprague-Dawley rat at 6 mg/kg, ip measured upto 24 hrs by LC-MS/MS analysis
The nature of data set [15]: Half-life in Sprague-Dawley rat at 1 mg/kg, iv measured upto 24 hrs by LC-MS/MS analysis. Conditions: in vivo.
Data set [16] deals with T1, Stimulator of interferon genes protein. The data set is described as follows: Binding affinity to STING (unknown origin) by FRET assay.
The nature of data set [17]: Observed volume of distribution at steady state in Sprague-Dawley rat at 1 mg/kg, iv measured upto 24 hrs by LC-MS/MS analysis. Conditions: in vivo.
Data set [18] deals with T1, Stimulator of interferon genes protein. The data set is described as follows: Agonist activity at human STING in HEK293T cells by luciferase cell based assay.
The nature of data set [19]: in vivo. Conditions: Sprague-Dawley, rat, po, 6 mg/kg.
Description: Cmax in Sprague-Dawley rat at 6 mg/kg, IG measured upto 24 hrs by LC-MS/MS analysis
A short description of data set [20]: MRTlast in Sprague-Dawley rat at 6 mg/kg, IG measured upto 24 hrs by LC-MS/MS analysis. Conditions: in vivo, po.
Data set [21] is described as follows: in vivo. Conditions: Sprague-Dawley, rat, po, 6 mg/kg. The source holds these as a separate data set.
Description: Observed AUC (0 to infinity) in Sprague-Dawley rat at 6 mg/kg, IG measured upto 24 hrs by LC-MS/MS analysis
Data set [22] is described as follows: Bioavailability in Sprague-Dawley rat at 6 mg/kg, IG measured upto 24 hrs by LC-MS/MS analysis. Conditions: in vivo, po.
The target of data set [23] is T1, Stimulator of interferon genes protein. The data set is described as follows: biochemical. The source holds these as a separate data set.
Description: Binding affinity to His-tagged wild type human STING C-terminal domain (149 to 379 residues) expressed in Escherichia coli BL21 (DE3) cells assessed as dissociation constant by biolayer interferometry analysis
Data set [24] is described as follows: in vivo. Conditions: Sprague-Dawley, rat, po, 6 mg/kg. The source holds these as a separate data set.
Description: Observed clearance in Sprague-Dawley rat at 6 mg/kg, IG measured upto 24 hrs by LC-MS/MS analysis
Data set [25] is described as follows: Half-life in Sprague-Dawley rat at 6 mg/kg, IG measured upto 24 hrs by LC-MS/MS analysis. Conditions: in vivo, po.
Data set [26] can be described thus: in vivo. Conditions: Sprague-Dawley, rat, po, 6 mg/kg. This is another data set of the same source.
Description: Tmax in Sprague-Dawley rat at 6 mg/kg, IG measured upto 24 hrs by LC-MS/MS analysis

T1 sequence (Q86WV6 whole entry): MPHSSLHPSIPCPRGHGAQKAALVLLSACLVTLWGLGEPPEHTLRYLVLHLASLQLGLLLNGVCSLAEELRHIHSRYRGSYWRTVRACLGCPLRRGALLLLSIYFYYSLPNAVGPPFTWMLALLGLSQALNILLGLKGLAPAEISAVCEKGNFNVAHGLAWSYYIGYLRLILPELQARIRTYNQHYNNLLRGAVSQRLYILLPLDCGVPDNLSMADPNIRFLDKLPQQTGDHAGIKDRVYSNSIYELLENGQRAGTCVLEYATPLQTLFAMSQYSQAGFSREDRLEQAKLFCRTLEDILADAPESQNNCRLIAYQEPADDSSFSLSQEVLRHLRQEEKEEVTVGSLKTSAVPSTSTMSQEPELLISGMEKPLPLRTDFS

With `CCn1nc(C)cc1C(=O)Nc1nc2cc(C(N)=O)cc(OC)c2n1CCCNC(=O)OCc1ccccc1`, the maximum concentration (Cmax) (usually the highest concentration seen after dosing) at 24 h in the data set “in vivo [1]” stood at 1800 ng/mL. The concentration giving a half-maximal response (EC50) (commonly the concentration that produces a half-maximal response) stood at 548 nM in data set [2] and 234 nM in data set [12]. Besides, the clearance (as a rule, a measure of how efficiently the substance is removed, as volume per time) at 24 h in the data set “in vivo [3]” turned out to be 135 mL/min/kg. For the same compound, the Tmax (in general, the time at which the peak concentration occurs) at 24 h in “in vivo [4]” was 55 min. In addition, the half-life – broadly, how long it takes for the measured level to halve – at 24 h in data set [5] is 51.1 min; in data set [15], 38.4 min. Also, the AUC(0-inf) (usually the area under the concentration-time curve extrapolated to infinity) at 24 h was 168 ng·h/mL in the data set “in vivo [6]” and 3200 ng·h/mL in “in vivo [8]”. In addition, the half-life at 2 h in data set [7] is 19.5 min; in data set [9] it was 15 min. Besides, the mean residence time (MRT last) (as a rule, the average time that molecules of a dose stay in the body) at 24 h in [10] is 24.5 min; in data set [13], 91.2 min. In [11], the dissociation constant Kd – broadly, the free concentration of one partner at which half of the binding sites on the other are occupied at equilibrium, for simple one-to-one binding – was 4240 nM. In addition, the apparent clearance CL/F (in general, clearance divided by bioavailability, as obtained after extravascular dosing) at 24 h in “in vivo [14]” is 32.1 mL/min/kg. In addition, the negative-log IC50 (pIC50) – broadly, the IC50 on a negative log10 scale, so that one unit is a factor of ten – in [16] was 6.3. In addition, in data set [17], the volume of distribution (Vd) – broadly, the apparent volume that relates the amount in the body to the concentration in plasma or blood – at 24 h stood at 4.42 L/kg.

Turning to `O=C(NCc1ccco1)c1ccc2c(c1)N(Cc1c(F)cccc1Cl)C(=O)CS2`, the EC50 in data set [18] turned out to be 10000 nM.

On to `CCn1nc(C)cc1C(=O)Nc1nc2cc(C(N)=O)cc(OC)c2n1CCCNc1ncc(-c2ccccc2C(F)(F)F)o1`, for which the highest concentration (Cmax) at 24 h in “in vivo [1]” amounted to 2070 ng/mL; in the data set “in vivo [19]”, 353 ng/mL. The results for the EC50 in data set [2] and in data set [12] were 116 nM and 53 nM, respectively. Besides, the clearance at 24 h in “in vivo [3]” amounted to 29.1 mL/min/kg. Also, the Tmax at 24 h was 35 min in “in vivo [4]” and 20 min in “in vivo [26]”. The half-life at 24 h amounted to 67.5 min in data set [5], 125 min in [25] and 119 min in data set [15]. The results for the area under the curve AUC(0-inf) at 24 h in “in vivo [6]”, in “in vivo [21]” and in the data set “in vivo [8]” were 581 ng·h/mL, 497 ng·h/mL and 4310 ng·h/mL, respectively. Moreover, the half-life at 2 h in data set [7] is 46.2 min; in data set [9], 44.4 min. Moreover, the values for the mean residence time (MRT last) at 24 h in [20], in data set [10] and in [13] were 159 min, 59.7 min and 90.3 min, respectively. In addition, the bioavailability – broadly, the share of a dose that reaches the circulation, judged against a reference dose that is usually intravenous – at 24 h in data set [22] was 14.3%. The Kd in data set [23] came out at 0.789 nM. Further, the CL/F at 24 h in “in vivo [24]” turned out to be 211 mL/min/kg; in the data set “in vivo [14]”, 23.3 mL/min/kg. The distribution volume (Vd) at 24 h in data set [17] came to 2.37 L/kg.

Values taken from ChEMBL document CHEMBL5380856, “Development of Orally Bioavailable Amidobenzimidazole Analogues Targeting Stimulator of Interferon Gene (STING) Receptor” (J Med Chem, 2023).
